How the values were obtained:
[1] = target: T1, medaka Esr1 (mEsr1) (Oryzias latipes, UniProt P50241); assay: cell-based; design: species or system Japanese medaka (Oryzias latipes)
T1 sequence (P50241 1-620): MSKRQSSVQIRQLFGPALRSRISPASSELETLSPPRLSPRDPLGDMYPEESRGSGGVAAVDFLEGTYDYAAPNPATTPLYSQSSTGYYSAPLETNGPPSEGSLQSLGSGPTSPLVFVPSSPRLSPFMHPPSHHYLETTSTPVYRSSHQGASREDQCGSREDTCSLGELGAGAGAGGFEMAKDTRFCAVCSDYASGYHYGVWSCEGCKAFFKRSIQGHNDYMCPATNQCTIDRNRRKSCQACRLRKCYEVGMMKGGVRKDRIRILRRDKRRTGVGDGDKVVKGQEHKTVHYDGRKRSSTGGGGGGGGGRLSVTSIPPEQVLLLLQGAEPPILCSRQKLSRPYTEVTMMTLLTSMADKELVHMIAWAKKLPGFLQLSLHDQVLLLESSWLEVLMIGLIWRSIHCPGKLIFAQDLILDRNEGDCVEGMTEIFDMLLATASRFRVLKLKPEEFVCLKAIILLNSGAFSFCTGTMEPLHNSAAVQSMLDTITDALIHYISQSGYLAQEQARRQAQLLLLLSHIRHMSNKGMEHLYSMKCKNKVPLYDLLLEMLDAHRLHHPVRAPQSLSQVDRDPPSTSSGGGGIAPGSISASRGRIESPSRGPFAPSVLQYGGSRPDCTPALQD

[2] = target: T1, medaka Esr1 (mEsr1); assay: Medaka Esr1 reporter gene assay, antagonist assay; assay type: cell-based, Japanese medaka (Oryzias latipes); conditions: E2 spiked at 1.0 nM (B); MAC = 1.0 × 10^−5 M
[3] = target: T2, medaka ARβ (mArβ) (Oryzias latipes, UniProt D1MV73); assay: Medaka ARβ reporter gene assay, agonist assay; assay type: cell-based, Japanese medaka (Oryzias latipes); conditions: MAC = 1.0 × 10^−5 M
T2 sequence (D1MV73 1-744): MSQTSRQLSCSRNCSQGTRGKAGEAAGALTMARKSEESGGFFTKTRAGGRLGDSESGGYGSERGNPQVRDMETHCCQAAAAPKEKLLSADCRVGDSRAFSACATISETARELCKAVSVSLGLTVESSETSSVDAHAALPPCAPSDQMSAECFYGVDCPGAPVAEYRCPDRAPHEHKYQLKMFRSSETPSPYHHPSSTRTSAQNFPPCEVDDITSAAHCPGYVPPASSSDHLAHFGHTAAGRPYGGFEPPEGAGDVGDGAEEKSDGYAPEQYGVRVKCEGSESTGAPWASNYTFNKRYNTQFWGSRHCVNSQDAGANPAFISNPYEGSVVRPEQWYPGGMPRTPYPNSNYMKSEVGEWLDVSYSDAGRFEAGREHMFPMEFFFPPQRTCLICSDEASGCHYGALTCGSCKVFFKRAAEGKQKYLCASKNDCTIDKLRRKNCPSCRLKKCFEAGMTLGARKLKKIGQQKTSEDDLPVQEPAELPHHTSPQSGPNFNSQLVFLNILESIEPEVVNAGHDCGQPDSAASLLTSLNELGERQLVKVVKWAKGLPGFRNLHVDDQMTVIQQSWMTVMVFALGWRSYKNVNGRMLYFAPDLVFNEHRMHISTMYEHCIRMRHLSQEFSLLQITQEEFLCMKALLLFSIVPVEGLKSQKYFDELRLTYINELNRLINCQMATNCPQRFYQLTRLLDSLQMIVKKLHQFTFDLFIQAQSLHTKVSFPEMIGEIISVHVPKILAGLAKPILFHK

[4] = target: T2, medaka ARβ (mArβ); assay: Medaka ARβ reporter gene assay, antagonist assay; assay type: cell-based, Japanese medaka (Oryzias latipes)
[5] = test system: Japanese medaka (Oryzias latipes); assay: Fish Short‐Term Reproduction Assay; assay type: in vivo; conditions: for GSI Female / GSI Male / HSI Female / HSI Male / Length Female / Length Male / Weight Female / Weight Male: completion of exposure
[6] = 100 μg/L measured, 21 d, sig. ↓ vs control
[7] = measured concentration 5.69 μg/L
[8] = measured concentration 28.8 μg/L
[9] = measured concentration 100 μg/L

## CCC(CC)Nc1c([N+](=O)[O-])cc(C)c(C)c1[N+](=O)[O-] [PDM, Pendimethalin]
[1]
  EC50: 3.3 µM
[1]; mode of action in which EC50 or PC10 was obtained in RGA
  In vitro positive: Esr: Esr
[2]
  Antagonistic activity: NE (MAC = 1.0 × 10^−5 M)^(B)
[3]
  Agonistic activity: NE (MAC = 1.0 × 10^−5 M)
[4]; Antagonistic activity IC50, 11‐KT spiked at 50 nM (D)
  IC50: 3.1 µM
[4]; mode of action in which IC50 or IC30 was obtained in RGA
  In vitro positive: aAr: aAr
[4]; transcriptional activity on mArβ by 11KT
  Antagonistic activity on mArβ (in words): inhibitory potency
[5]; 5.69 μg/L measured, 21 d
  Fertility rate: 93 ± 0.9%
  Hepatic VTG, female: 649 ± 200 ng/mg‐liver
  Hepatic VTG, male: 0.5 ± 0.0 ng/mg‐liver
  Mortality: 0.0%
  Mortality, number of dead fish: 0
  Number of fertilized eggs (per female per day): 19 ± 3.1
  Number of total eggs (per female per day): 21 ± 3.4
  SSC female (joint plates with papillary processes): 0 ± 0
  SSC male (joint plates with papillary processes): 85 ± 11
[5]; 28.8 μg/L measured, 21 d
  Fertility rate: 88 ± 4.9%
  Hepatic VTG, female: 933 ± 692 ng/mg‐liver
  Hepatic VTG, male: 5.7 ± 6.6 ng/mg‐liver
  Mortality: 4.2%
  Mortality, number of dead fish: 1
  Number of fertilized eggs (per female per day): 18 ± 3.6
  Number of total eggs (per female per day): 20 ± 3.9
  SSC female (joint plates with papillary processes): 0 ± 0
  SSC male (joint plates with papillary processes): 80 ± 8.2
[5]; 100 μg/L measured, 21 d
  Hepatic VTG, female: 813 ± 157 ng/mg‐liver
  Mortality: 8.3%
  Mortality, number of dead fish: 2
  Number of total eggs (per female per day): 19 ± 2.1
  SSC female (joint plates with papillary processes): 0 ± 0
  SSC male (joint plates with papillary processes): 80 ± 13
[5]; 100 μg/L measured, 21 d, sig. ↑ vs control
  Hepatic VTG, male: 774 ± 290 ng/mg‐liver
[5]; [6]
  Fertility rate: 62 ± 11%
  Number of fertilized eggs (per female per day): 12 ± 2.3
[5]; 21 d
  LOEC, elevated hepatic VTG in males: 100 µg/L
[5]; LOEC on reproduction (fecundity and/or fertility)
  LOECREPRO: 100 µg/L
[5]; Oryzias latipes, 504 h, read-out: LOECmVTG
  minimal effective concentration: 0.1 µg/mL
[5]; at concentrations that did not affect number of total eggs
  Fertility rate (in words): significant decrease
[5]; concentrations without overt toxicity
  LOECREPRO (reduction in fecundity or fertility): 100 µg/L
[5]; lowest observed effect concentration on mortality
  LOECTOX: ND (>100) μg/L
[5]; [7]
  GSI Female: 10.7 ± 0.8%
  GSI Male: 0.64 ± 0.11%
  HSI Female: 4.5 ± 0.70%
  HSI Male: 2.7 ± 0.16%
  Length Female: 32.4 ± 0.7 mm
  Length Male: 31.9 ± 0.7 mm
  Weight Female: 427 ± 25 mg
  Weight Male: 366 ± 25 mg
[5]; [8]
  GSI Female: 11.3 ± 0.8%
  GSI Male: 0.55 ± 0.11%
  HSI Male: 2.7 ± 0.28%
  Length Female: 33.1 ± 0.9 mm
  Length Male: 32.2 ± 0.2 mm
  Weight Female: 455 ± 46 mg
  Weight Male: 393 ± 20 mg
[5]; [9]
  GSI Female: 9.7 ± 0.3%
  GSI Male: 0.60 ± 0.20%
  HSI Female: 4.4 ± 1.04%
  HSI Male: 2.9 ± 0.45%
  Length Female: 31.4 ± 0.8 mm
  Length Male: 31.9 ± 0.7 mm
  Weight Female: 423 ± 30 mg
  Weight Male: 389 ± 28 mg

— paper PMC9297976 (Journal of Applied Toxicology, 2021)
